# From article PMC10587869, “Deciphering Structural Determinants Distinguishing Active from Inactive Cell-Penetrating Peptides for Cytosolic mRNA Delivery” (Bioconjugate Chemistry, 2023)
# Positions of bridges follow the written chain, without caps; N, C: chain ends. No end group written: not given here.
# How the values were obtained:
# [1] = tested on: MC3T3 cells; experiment: Luciferase expression after SecNLuc mRNA transfection (Nano-Glo); assay type: cell-based, murine
# Procedure: (§1) Peptide-mRNA polyplexes were formulated as previously described.[40],[41] In short, two separate stock solutions of mRNA and peptide were prepared in MQ and simultaneously dispensed with electronically dispensing pipettes (E4 Electronic Pipette, LTS E4-100XLS+, Mettler-Toledo Rainin, LLC, Oakland, CA, USA) at a flow rate of 11 mL min^–1. All polyplexes were formed at a concentration of at least 10-fold the final intended concentration for transfections.
# One day before mRNA transfections, 10 000 MC3T3 cells in 100 μL were seeded in 96-well plates (Greiner Bio-One Cat. No. 655180) or 20 000 cells in 200 μL in μ-slide eight-well chambers (Ibidi, Gräfelfing, Germany). These seeding densities ensured confluency between ∼70 and 90% on the day of transfection. mRNA transfections were performed by removing the complete medium from the wells and replacing it with mRNA nanoparticles diluted 10 times in complete medium. Cells were exposed to mRNA nanoparticles for 2 h at 37 °C, 5% CO2, in a humidified incubator. […]
# The extent of luciferase production was determined using the Nano-Glo Luciferase Assay (Promega, Madison, WI, USA, Cat No. N1130) according to the manufacturer’s instructions. […] Luminescence was measured after briefly shaking the plate using the VICTOR X3Multilabel Plate Reader (PerkinElmer, Waltham, MA, USA).
# [2] = tested on: MC3T3 cells; experiment: Cellular uptake of Cy5-eGFP mRNA polyplexes, live-cell confocal microscopy; assay type: cell-based, murine
# Procedure: as §1
# (§2) One day before mRNA transfections, 10 000 MC3T3 cells in 100 μL were seeded in 96-well plates (Greiner Bio-One Cat. No. 655180) or 20 000 cells in 200 μL in μ-slide eight-well chambers (Ibidi, Gräfelfing, Germany). These seeding densities ensured confluency between ∼70 and 90% on the day of transfection. mRNA transfections were performed by removing the complete medium from the wells and replacing it with mRNA nanoparticles diluted 10 times in complete medium. Cells were exposed to mRNA nanoparticles for 2 h at 37 °C, 5% CO2, in a humidified incubator. For some experiments, cells were stained with 200 μL of 1 μM CellTrace yellow (Thermo Fisher Scientific, Cat. No. C34567) directly after the nanoparticle incubation, according to the manufacturer’s instructions. Regardless of the tested N/P ratio or type of nanoparticle, mRNA inputs were equalized across conditions, resulting in 107 ng/well for luciferase assays in 96-well plate formats and 214 ng/well for confocal microscopy experiments. […] For untreated controls, complete cell culture medium was added and refreshed as often as in the experimental conditions.
# Before microscopy, complete medium containing phenol red was replaced with an equal volume of phenol red-free and HEPES-formulated Opti-MEM (Gibco). The uptake of Cy5-eGFP mRNA-formulated nanoparticles was assessed 2 h post-transfection, and eGFP expression was assessed 24 h post-transfection. Live-cell imaging was performed using a Leica TCS SP8 SMD (Leica Microsystems, Mannheim, Germany) with an HC PL APO CS2 63×/1.20 water objective and a temperature-controlled stage at 36.5 °C. eGFP was excited at 488 nm (emission: 500–550 nm). CellTrace yellow was excited at 555 nm (emission: 570–620 nm), and Cy5 was excited at 633 nm (emission: 650–690 nm). All laser lines were generated by a white-light laser, and emissions were detected with hybrid detectors. All channels were sequentially acquired to avoid crosstalk at a bit depth of 12. Except for the LMM eGFP conditions (reduced gain), equal acquisition settings (pixel size, pinhole, laser power, and gain) per fluorophore were used within the experiments.
# Quantification of the Cy5 fluorescence was performed as previously described.[59],[60] In brief, five separate images (unless stated otherwise) containing approximately 10 cells per image were analyzed using ImageJ (version 1.53f51). A square mask of 184.52 μm^2 was used to quantify the raw integrated density (sum of all pixels in a region of interest). Importantly, cell confluencies ranged from ∼80–95%, ensuring minimal impact of cell density on total fluorescence values. The brightness and contrast of the images were adjusted to find a cell-free region to determine background fluorescence. Then, a circle was drawn to measure the background fluorescence. To obtain the corrected total cellular fluorescence (CTCF), the area (in pixels) was multiplied by the mean gray value of the background and subsequently subtracted from the raw integrated density.
# [3] = tested on: MC3T3 cells; experiment: eGFP protein expression after mRNA transfection, live-cell confocal microscopy; assay type: cell-based, murine; settings: N/P 3, eGFP mRNA, 24 h post-transfection
# Procedure: as §1, §2
# Before microscopy, complete medium containing phenol red was replaced with an equal volume of phenol red-free and HEPES-formulated Opti-MEM (Gibco). The uptake of Cy5-eGFP mRNA-formulated nanoparticles was assessed 2 h post-transfection, and eGFP expression was assessed 24 h post-transfection. […] All laser lines were generated by a white-light laser, and emissions were detected with hybrid detectors. […]
# [4] = Dynamic light scattering of peptide-mRNA nanoparticles; assay type: physicochemical; settings: hLF-v1 mRNA polyplexes, context: upon polymerization; N/P not printed at the place; DLS 25 °C, no serum
# Procedure: as §1
# The hydrodynamic diameter of the nanoparticles was measured at 25 °C by dynamic light scattering (DLS) using a Zetasizer Nano ZS (Malvern Instruments, Worcestershire, UK) equipped with a 4 mW He–Ne laser (633 nm) with a backscatter detection angle of 173°. At least 40 μL of 10 times concentrated nanoparticle solution was measured in a UV-cuvette (BrandTech Scientific, Essex, CT, USA, Cat. No. 759200).
# [5] = Heparin-mediated polyplex decomplexation assay (QuantiFluor RNA); assay type: physicochemical; settings: N/P 1 and 3, low or high heparin amounts; Figure S8
# Procedure: For testing the stability of mRNA polyplexes, a polyanion decomplexation assay, mediated by the polyanionic heparin (heparin sodium salt from porcine intestinal mucosa, Cat. No. H3149-100 KU, Sigma-Aldrich) was performed. mRNA polyplexes were freshly prepared with uncapped SecNLuc mRNA (RIBOPRO), as described in the section mRNA Nanoparticle Formation. Following polyplex formation, all samples were incubated for at least 30 min at room temperature. Importantly, separate stock solutions of heparin were made to ensure an equal volume across conditions regardless of heparin concentration. For decomplexation, 5 μL of 10× polyplexes were diluted in RNase-free TE-buffer at pH 7.5 (Promega, Cat. No. E260A) supplemented with an equal volume of heparin across conditions to a total volume of 50 μL in a 384-well plate (Greiner Bio-One, Cat. No. 781101). All samples were quickly spun down before incubation at 37 °C for 90 min. The QuantiFluor RNA System (Promega, Cat. No. E3310) was used with a 1:2000 dilution of RNA-binding dye for all tested conditions to detect released mRNA. For quantification, a calibration curve with uncapped SecNLuc mRNA was made, spanning from 0.19 ng mRNA/well to 50 ng mRNA/well. For detection of released mRNA, the dye was excited at 485 nm, and emission was collected at 535 nm using the VICTOR X3Multilabel Plate Reader (PerkinElmer)
# Data analysis was performed using GraphPad Prism (GraphPad Software, version 8.4.2, San Diego, CA, USA). Data are presented as means ± standard deviation (SD) unless stated otherwise. Means were calculated by first averaging the technical replicates, for which outliers were identified using Grubbs’ test, followed by averaging the biological replicates. Before statistical analysis, all data were checked for normal distribution with a Shapiro–Wilk test. Statistical analysis was done using one- or two-way analysis of variance (ANOVA). Multiple comparisons were corrected using Tukey’s test with 95% confidence intervals. For the mRNA standard curve used in heparin decomplexation assays, the coefficient of variation was determined both in the standards and in samples and was ≤20%. The standard curve was fitted using a sigmoidal four-parameter logistic curve. The standard curve was back fitted with ±10% accuracy to verify the correctness of the fit. The signals from samples were blanked with the appropriate solution (TE buffer) before calculating interpolations. p > 0.05 was considered not significant, and p values were reported using the GraphPad Prism style (*p ≤ 0.05, **p ≤ 0.01, ***p ≤ 0.001, and ****p ≤ 0.0001).
# [6] = tested on: HeLa cells; experiment: Luciferase expression after SecNLuc mRNA transfection (Nano-Glo); assay type: cell-based, human
Sequence,"luciferase activity ([1]; MC3T3, independent of the N/P ratio (3 or 5))","ratio of Poly hLF-x vs Mono-hLF-x, Corrected Total Cellular Fluorescence (Cy5) ([2]; Cy5-eGFP mRNA polyplexes, 2 h post-transfection, n = 5 fields of view per condition) [x]","cellular uptake of Cy5-labeled eGFP mRNA ([2]; N/P 3 polyplexes (LMM lipoplexes), 2 h post-transfection, complete medium with 10% FBS, confocal, Figure 1, five independent experiments)",eGFP protein expression [3],monodisperse particle size by DLS [4] [nm],"effect of oligomerization on uptake ([2]; 2 h incubation, Cy5-labeled mRNA, polymerized vs monomeric, Figure 5, Figure S5)","uptake of Cy5-labeled mRNA polyplexes of amphipathic hLF variants ([2]; 2 h incubation, live-cell confocal microscopy, serum present, Figure 5, four independent experiments)",difference in heparin decomplexation [5],"luciferase expression as fraction of PF14-induced expression ([1]; MC3T3, N/P 5)","luciferase expression ([6]; N/P 3, compared to untreated)",luciferase expression higher than PF14 ([6]; N/P 5) [%]
KCFQWQRNMRKVRGPPVSCIKR [hLF-WT],no activity,2.33,only little uptake,no expression,–,–,–,–,–,–,–
"KCFQWLRNLRKVRALLVSCLKR [hLF-v1, amphipathic hLF variant with PF14 motifs and the same cationic amino acids as hLF-WT]",–,–,–,fewer cells were positive for eGFP expression than for PF14,72 ± 2.1,no benefit for uptake,performed the worst and tended to aggregate upon polymerization,–,–,–,–
"KCFQWLRNLRKVRALLVSCLKR (disulfide 2-19 (inferred)) [poly hLF-v1, polymeric hLF-v1]",–,–,–,successful delivery,–,–,–,no difference,approximately half,significant luciferase expression,~5
